The values that follow come from patent publication US20160074338A1, “FOOD COMPOSITION FOR PREVENTING OBESITY, PHARMACEUTICAL COMPOSITION FOR TREATING OBESITY, AND ANIMAL MEDICINE FOR TREATING OBESITY, CONTAINING GINGERNONE A” (SNU R&DB Foundation, priority 2011, published 2016).

Holding throughout (assay type): cell-based
In series [1] the test system is C/EBPα. The series can be described thus: Western blotting of C/EBPα protein expression in differentiating 3T3-L1 cells. As to conditions: MDI-differentiated 3T3-L1 cells; for C/EBPα expression level: 40 μM, FIG. 5 comparison. How it is done:
(§1) In Experimental Example 4, it was confirmed by Western blotting that gingerenone A affects important transcriptional factors, C/EBPα and PPARγ, and FAS protein expressed by a transcriptional factor thereof, expressed upon fat cell differentiation (B. L. Upham et al., Carcinogenesis. 18:37-42, 1997).
(§2) Post-confluent 3T3-L1 cells were cultured in DMEM supplemented with MDI, 10% FBS and 10 ml/L of antibiotic-antimycotic agent. In this media, we additionally treated with or without gingerenone A (10, 20 and 40 μM) for 2 days. For the next 2 to 4 days, the cells were further cultured. Here, the culture media was prepared by adding gingerenone A at concentrations of 10, 20 and 40 μM to DMEM media comprising insulin, 10% FBS and 1% antibiotic-antimycotic agent. For the next 4 to 6 days, the cells were further cultured in media comprising 10% FBS, 1% antibiotic-antimycotic agent and gingerenone A. Here, gingerenone A was added at concentrations of 10, 20 and 40 μM to the DMEM media. To extract protein from the cultured cells, after washing two times with cold PBS (phosphate buffered saline), the cells were lysed with a protein extraction solution. The protein extraction solution was RIPA buffer (50 mM, Tris pH 8.0, 150 mM NaCl, 1% NP-40, 5 mM EDTA and 1 mM PMSF) comprising 0.5% protease inhibitor (SIGMA-ALDRICH) and 0.5% phosphatase inhibitor (250 mM sodium fluoride, 5 mM sodium orthovanadate, 50 mM sodium pyrophosphate and 50 mM glycerophosphate). The cell lysates were centrifuged at 4° C. for 20 minutes at a rate of 12000 rpm. Supernatant formed by centrifugation was transferred to new 1.5 mL Eppendorf tubes. The protein content of the supernatants was determined using a DC assay kit (Bio-Rad Corp., Richmond, Calif., USA). The DC assay kit uses BSA (bovine serum albumin) as a standard solution. After mixing 20 to 50 μg of the protein with a sample buffer comprising bromophenol blue and denaturing the protein at 100° C. for 5 minutes, the denatured proteins were separated on a 12% SDS-polyacrylamide gel. […]
For orientation: Immunoblotting shows a protein as a band on a membrane.

Series [2] concerns PPARγ. The series can be described thus: Western blotting of PPARγ protein expression in differentiating 3T3-L1 cells. As to conditions: MDI-differentiated 3T3-L1 cells. How it is done:
as §1
Post-confluent 3T3-L1 cells were cultured in DMEM supplemented with MDI, 10% FBS and 10 ml/L of antibiotic-antimycotic agent. In this media, we additionally treated with or without gingerenone A (10, 20 and 40 μM) for 2 days. For the next 2 to 4 days, the cells were further cultured. Here, the culture media was prepared by adding gingerenone A at concentrations of 10, 20 and 40 μM to DMEM media comprising insulin, 10% FBS and 1% antibiotic-antimycotic agent. For the next 4 to 6 days, the cells were further cultured in media comprising 10% FBS, 1% antibiotic-antimycotic agent and gingerenone A. Here, gingerenone A was added at concentrations of 10, 20 and 40 μM to the DMEM media. To extract protein from the cultured cells, after washing two times with cold PBS (phosphate buffered saline), the cells were lysed with a protein extraction solution. […] The protein content of the supernatants was determined using a DC assay kit (Bio-Rad Corp., Richmond, Calif., USA). […]

In series [3] the test system is 3T3-L1 cells. The series can be described thus: MTT analysis of viability of 3T3-L1 cells. On the procedure: In Experimental Example 2, in order to measure the toxicity of 3T3-L1 cells in the presence of varying concentrations of gingerenone A, MTT3-(4,5-Dimethylthiazol-2-yl)-2,5diphenyltetrazolium bromide) analysis was conducted.
First, after plating 3T3-L1 cells into 96 well plates, the cells were cultured until the 3T3-L1 cells became confluent. Thereafter, the 3T3-L1 cells were treated with gingerenone A at concentrations of 10, 20 and 40 μM. After culturing for 24 and 48 hours, MTT was added to the cultured cells to a concentration of 0.5 mg/ml. The treated cells were cultured for 4 hours at 37° C. in a 5% CO2 incubator. Thereafter, the media was removed and 200 μl of DMSO (dimethylsulfoxide) was added to measure absorbance at a wavelength of 570 nm using an absorbance reader (Versa Max, Molecular Device, California, USA). Cell viability was determined as a percentage with respect to a control treated with only MDI (0.5 mM of isobutyl-methylxanthine, 1 μM of dexamethasone and 10 μg/ml of insulin).

For series [4], the system named is FAS (fatty acid synthase). The series can be described thus: Western blotting of FAS protein expression in differentiating 3T3-L1 cells. As to conditions: MDI-differentiated 3T3-L1 cells; for FAS expression level: 40 μM, FIG. 5 comparison. On the procedure:
as §1, §2

The subject of series [5] is 3T3-L1 cells. Put plainly: Oil red O staining of fat accumulation in MDI-differentiated 3T3-L1 cells. As to conditions: 10, 20 and 40 μM, 6 days, dependent on concentration. On the procedure: In Experimental Example 3, to analyze the suppressive effects of gingerenone A on fat accumulation, oil red 0 staining was performed after inducing differentiation of the pre-adipocytes (K. Tobe et al., FEBS Lett, 215(2):345-9, 1987).
The 3T3-L1 cells (ATCC, Gaithersburg, Md.), representing pre-adipocytes, were plated into 24-well plates. The plated 3T3-L1 cell line was cultured in DMEM (Dulbecco-modified Eagle medium, WELGENE) with 10% FBS (fetal bovine serum) and 10 ml/L of antibiotic-antimycotic agent at 37° C. in a 5% CO2 incubator (MCO-15AC, SANYO E&E, Europe) until the cells reached 100% confluence.
When the 3T3-L1 cells reached 100% confluence, the cells were further cultured for 2 days in DMEM medium, in which MDI was added, with 10 ml/L of antibiotic-antimycotic agent and 10% fetal bovine serum (FBS). The media was replaced with DMEM containing 10 ml/L of insulin, 10% FBS and 10 ml/L of antibiotic-antimycotic agent for another 2 days. Thereafter, the media was changed to DMEM medium only comprising 10 ml/L of antibiotic-antimycotic agent and 10% FBS. […]
When 3T3-L1 cells were differentiated in the presence of MDI, gingerenone A was added at concentrations of 10, 20 and 40 μM to the cell culture media every third day from the day of MDI addition. […] The concentration was measured at a wavelength of 515 nm using an absorbance reader.

Take `COc1cc(CC/C=C/C(=O)CCc2ccc(O)c(OC)c2)ccc1O` [gingerenone A]: the C/EBPα expression level result in series [1] is listed as “considerably reduced”. In series [1] (10, 20 and 40 μM, FIG. 4), the “C/EBPα protein expression level” value is reported as “reduced”. Further, the PPARγ expression level entry in series [2] (40 μM, FIG. 5 comparison) is listed as “considerably reduced”. Further, the “PPARγ protein expression level” value in series [2] (10, 20 and 40 μM, FIG. 4) was “reduced”. Also, the “cytotoxicity (viability of 3T3-L1 cells)” value in series [3] (40 μM, 24 and 48 hours after treatment) is “not observed”. Besides, the “cytotoxicity (MTT analysis)” value in series [3] (3T3-L1 pre-adipocytes treated with 10, 20 and 40 μM) is reported as “not observed”. The FAS expression level result in series [4] is reported as “considerably reduced”. The “FAS protein expression level” value in series [4] (10, 20 and 40 μM, FIG. 4) is “reduced”. The “cellular fat content (oil red O staining)” value in series [5] is recorded as “decreased”.
Turning to `CCCCC[C@H](O)CC(=O)CCc1ccc(O)c(OC)c1` [gingerol, reference compound], in series [1], the C/EBPα expression level result is “slightly reduced”. In addition, in series [4], the FAS expression level result is recorded as “slightly reduced”.
